# Legend:
# [1] = biological target: T1, Integrin alpha-L (Homo sapiens, UniProt P20701)
# T1 sequence (P20701 whole entry): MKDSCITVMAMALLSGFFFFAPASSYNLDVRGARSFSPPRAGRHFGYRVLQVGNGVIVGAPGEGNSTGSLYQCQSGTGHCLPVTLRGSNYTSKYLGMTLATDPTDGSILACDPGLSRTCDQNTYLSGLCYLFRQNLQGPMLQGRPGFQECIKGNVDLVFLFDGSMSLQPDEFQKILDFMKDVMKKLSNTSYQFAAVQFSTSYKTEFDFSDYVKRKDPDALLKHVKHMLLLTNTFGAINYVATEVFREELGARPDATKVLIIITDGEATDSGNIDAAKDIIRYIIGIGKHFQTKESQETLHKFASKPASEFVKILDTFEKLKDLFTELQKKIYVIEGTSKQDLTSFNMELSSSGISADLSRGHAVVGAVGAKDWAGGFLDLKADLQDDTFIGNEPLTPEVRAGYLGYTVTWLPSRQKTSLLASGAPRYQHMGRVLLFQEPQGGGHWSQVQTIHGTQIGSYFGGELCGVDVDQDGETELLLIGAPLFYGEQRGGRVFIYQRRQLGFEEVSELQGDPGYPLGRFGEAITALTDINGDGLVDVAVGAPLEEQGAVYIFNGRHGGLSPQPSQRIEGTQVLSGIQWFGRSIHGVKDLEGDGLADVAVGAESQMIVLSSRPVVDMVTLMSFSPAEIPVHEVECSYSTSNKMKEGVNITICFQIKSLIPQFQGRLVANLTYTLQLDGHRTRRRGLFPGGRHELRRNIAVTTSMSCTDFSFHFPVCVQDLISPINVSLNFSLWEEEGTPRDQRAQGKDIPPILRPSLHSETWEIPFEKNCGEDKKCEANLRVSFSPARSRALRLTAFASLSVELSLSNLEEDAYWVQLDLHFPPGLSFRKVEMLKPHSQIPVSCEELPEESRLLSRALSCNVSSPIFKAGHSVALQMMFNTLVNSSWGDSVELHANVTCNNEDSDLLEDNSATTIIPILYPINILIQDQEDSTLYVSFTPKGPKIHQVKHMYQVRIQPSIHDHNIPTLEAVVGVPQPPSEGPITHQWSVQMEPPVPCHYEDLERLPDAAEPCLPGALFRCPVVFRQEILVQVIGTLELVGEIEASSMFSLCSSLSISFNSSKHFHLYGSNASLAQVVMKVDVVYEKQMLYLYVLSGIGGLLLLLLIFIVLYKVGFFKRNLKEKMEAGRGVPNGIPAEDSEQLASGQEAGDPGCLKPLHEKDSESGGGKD
# [2] = biological target: T2, Intercellular adhesion molecule (ICAM-1), Integrin alpha-L/beta-2 (Homo sapiens, UniProt P05107+P20701)
# T2 sequence (P05362 whole entry, one chain of several, further chain): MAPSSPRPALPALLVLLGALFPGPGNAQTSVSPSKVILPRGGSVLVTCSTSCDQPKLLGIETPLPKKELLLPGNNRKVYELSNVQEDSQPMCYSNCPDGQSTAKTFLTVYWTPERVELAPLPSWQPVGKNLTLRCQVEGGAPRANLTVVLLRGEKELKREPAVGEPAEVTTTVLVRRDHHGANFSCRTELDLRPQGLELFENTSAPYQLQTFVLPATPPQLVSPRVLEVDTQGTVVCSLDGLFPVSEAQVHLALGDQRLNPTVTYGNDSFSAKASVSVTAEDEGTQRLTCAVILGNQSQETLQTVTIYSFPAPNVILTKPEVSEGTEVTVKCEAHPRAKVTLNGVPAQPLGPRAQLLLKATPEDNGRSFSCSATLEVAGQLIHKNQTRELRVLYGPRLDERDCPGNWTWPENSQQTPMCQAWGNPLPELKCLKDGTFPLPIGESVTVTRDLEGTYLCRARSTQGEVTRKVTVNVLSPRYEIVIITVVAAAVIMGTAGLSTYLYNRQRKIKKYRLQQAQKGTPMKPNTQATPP
# T2 sequence (P05107 whole entry, one chain of several): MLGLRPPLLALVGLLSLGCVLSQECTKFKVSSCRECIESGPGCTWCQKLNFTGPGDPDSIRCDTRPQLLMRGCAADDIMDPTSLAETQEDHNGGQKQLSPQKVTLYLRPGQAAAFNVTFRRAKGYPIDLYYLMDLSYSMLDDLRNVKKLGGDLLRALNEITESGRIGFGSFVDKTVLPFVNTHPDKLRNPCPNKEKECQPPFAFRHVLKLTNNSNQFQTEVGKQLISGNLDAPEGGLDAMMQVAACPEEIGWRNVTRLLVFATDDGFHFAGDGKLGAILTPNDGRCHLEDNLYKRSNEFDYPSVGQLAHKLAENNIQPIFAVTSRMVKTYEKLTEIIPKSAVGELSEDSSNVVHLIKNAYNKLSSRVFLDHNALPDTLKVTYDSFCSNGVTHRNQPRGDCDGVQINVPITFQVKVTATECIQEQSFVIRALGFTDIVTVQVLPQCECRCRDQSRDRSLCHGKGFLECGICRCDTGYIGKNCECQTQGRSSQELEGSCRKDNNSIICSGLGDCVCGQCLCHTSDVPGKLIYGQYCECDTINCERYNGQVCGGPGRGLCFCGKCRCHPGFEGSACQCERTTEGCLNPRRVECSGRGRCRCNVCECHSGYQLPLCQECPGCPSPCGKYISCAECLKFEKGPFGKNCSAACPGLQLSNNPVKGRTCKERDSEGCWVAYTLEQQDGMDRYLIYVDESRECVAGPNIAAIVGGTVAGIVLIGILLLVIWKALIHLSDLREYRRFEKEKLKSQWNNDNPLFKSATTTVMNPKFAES
# [3] = biological target: T1, Integrin alpha-L; test: Inhibition of intercellular adhesion molecule-1 (ICAM-1) binding to recombinant LFA-1, range (80-110)
# [4] = system: Mus musculus; test: Inhibition of allergen induced total cell influx in mouse lung at 3 mg/kg; format: functional
# [5] = biological target: T3, Intercellular adhesion molecule (ICAM-1), Integrin alpha-L/beta-2 (Homo sapiens) (UniProt P20701+P05362+P05107); conditions: Rattus norvegicus
# [6] = biological target: T3, Intercellular adhesion molecule (ICAM-1), Integrin alpha-L/beta-2 (Homo sapiens); conditions: Rattus norvegicus; remark: listed apart in the source
# [7] = biological target: T1, Integrin alpha-L; remark: listed apart in the source
# [8] = system: Mus musculus; test: Inhibition of allergen induced neutrophil influx in mouse lung at 3 mg/kg; format: functional
# [9] = system: Mus musculus; test: Inhibition of allergen induced neutrophil influx in mouse lung at 1 mg/kg; format: functional
# [10] = system: Mus musculus; test: Inhibition of allergen induced total cell influx in mouse lung at 10 mg/kg; format: functional
# [11] = system: Mus musculus; test: Inhibition of allergen induced neutrophil influx in mouse lung at 10 mg/kg; format: functional
# [12] = biological target: T2, Intercellular adhesion molecule (ICAM-1), Integrin alpha-L/beta-2; remark: listed apart in the source
# [13] = system: Mus musculus; test: Inhibition of allergen induced total cell influx in mouse lung at 1 mg/kg; format: functional
# [14] = biological target: T1, Integrin alpha-L; test: Inhibition of intercellular adhesion molecule-1 (ICAM-1) binding to recombinant LFA-1, range(760-2620)
# [15] = biological target: T1, Integrin alpha-L; test: Inhibition of intercellular adhesion molecule-1 (ICAM-1) binding to recombinant LFA-1, range(140-150)
# [16] = biological target: T1, Integrin alpha-L; test: Inhibition of intercellular adhesion molecule-1 (ICAM-1) binding to recombinant LFA-1, range(40-60)
# [17] = biological target: T2, Intercellular adhesion molecule (ICAM-1), Integrin alpha-L/beta-2; test: Inhibition of LFA-1 mediated JY-8 cell adhesion to ICAM-1, range (6-100); format: functional, cell-based
# [18] = biological target: T1, Integrin alpha-L; test: Inhibition of intercellular adhesion molecule-1 (ICAM-1) binding to recombinant LFA-1, range(130-170)
# [19] = biological target: T2, Intercellular adhesion molecule (ICAM-1), Integrin alpha-L/beta-2; test: Inhibition of LFA-1 mediated JY-8 cell adhesion to ICAM-1, range(3-10); format: functional, cell-based
# [20] = biological target: T1, Integrin alpha-L; test: Inhibition of intercellular adhesion molecule-1 (ICAM-1) binding to recombinant LFA-1, range(5-5)
# [21] = biological target: T1, Integrin alpha-L; remark: listed apart in the source
smiles,measurement,setting,value
O=C(O)C1CCN(C(=O)/C=C/c2ccc(Sc3ccc4c(c3)OCCO4)c(C(F)(F)F)c2C(F)(F)F)CC1,IC50,[1],3 nM
same,IC50,[2],0.5 nM
COc1ccccc1Sc1ccc(/C=C/C(=O)N2CCOCC2)c(C)c1C,IC50,[3],90 nM
Cn1ccc2cc(Sc3ccc(/C=C/C(=O)N4CCC(C(=O)O)CC4)c(Cl)c3Cl)ccc21,Total cells,[4],147 number ul-1
same,Polymorphonuclear cells,[5],7.48
same,Polymorphonuclear cells,[6],4.88
same,IC50,[7],6 nM
same,Neutrophils,[8],31%
same,Neutrophils,[9],36%
same,Total cells,[10],189 number ul-1
same,Neutrophils,[11],30%
same,IC50,[12],4 nM
same,Total cells,[13],291 number ul-1
COc1ccccc1Sc1ccc(/C=C/C(=O)N2CCC(C(=O)O)CC2)c(Cl)c1,IC50,[14],1400 nM
O=C(O)C1CCN(C(=O)/C=C/c2ccc(Sc3ccc4c(c3)OCCO4)c(Cl)c2)CC1,IC50,[15],145 nM
O=C(O)C1CCN(C(=O)/C=C/c2ccc(Sc3ccc4c(c3)OCCO4)c(C(F)(F)F)c2)CC1,IC50,[16],50 nM
COc1ccccc1Sc1ccc(/C=C/C(=O)N2CCOCC2)cc1Cl,IC50,[17],40 nM
same,IC50,[18],150 nM
Cn1ccc2cc(Sc3ccc(/C=C/C(=O)N4CCC(C(=O)O)CC4)c(C(F)(F)F)c3C(F)(F)F)ccc21,IC50,[19],5 nM
same,IC50,[20],5 nM
O=C(O)C1CCN(C(=O)/C=C/c2ccc(Sc3ccc4c(c3)OCCO4)c3ccccc23)CC1,IC50,[21],295 nM

# Reference: ChEMBL document CHEMBL1134304, “Discovery of novel p-arylthio cinnamides as antagonists of leukocyte function-associated antigen-1/intercellular adhesion molecule-1 interaction. 4. Structure-activity relationship of substituents on the benzene ring of the cinnamide” (J Med Chem, 2001)
